Experimental data taken from PubChem BioAssay AID328 (DTP/NCI, 2004).
Where “and” joins values, the source holds several entries; their conditions need not be identical. Equal entries are not always repeated. Toxic doses and inconclusive results are not listed.

System: BDF1 mice, P388 leukemia ip, median survival T/C
Experiment: NCI In Vivo Anticancer Drug Screen. Data for tumor model P388 Leukemia (intraperitoneal) in B6D2F1 (BDF1) mice
Settings: endpoint: median survival time, higher = longer survival
Outline: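 Antitumour effect was judged in vivo: survival in drug-treated mice, normalised to that of vehicle-dosed controls, gives the reported T/C.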

[1] = dose: 50.0 mg/kg/injection, schedule: Q01DX009 (ip), vehicle: Klucel (hydroxypropylcellulose) (HPC)
[2] = dose: 100.0 mg/kg/injection, schedule: Q01DX009 (ip), vehicle: Klucel (hydroxypropylcellulose) (HPC)
[3] = dose: 200.0 mg/kg/injection, schedule: Q01DX009 (ip), vehicle: Klucel (hydroxypropylcellulose) (HPC)
[4] = dose: 50.0 mg/kg/injection, schedule: Q01DX009 (ip), vehicle: saline with Tween-80
[5] = dose: 100.0 mg/kg/injection, schedule: Q01DX009 (ip), vehicle: saline with Tween-80
[6] = dose: 200.0 mg/kg/injection, schedule: Q01DX009 (ip), vehicle: saline with Tween-80
[7] = dose: 100.0 mg/kg/injection, schedule: Q04DX003 (ip), vehicle: saline with Tween-80
[8] = dose: 200.0 mg/kg/injection, schedule: Q04DX003 (ip), vehicle: saline with Tween-80
[9] = dose: 400.0 mg/kg/injection, schedule: Q01DX009 (ip), vehicle: saline with Tween-80
[10] = dose: 400.0 mg/kg/injection, schedule: Q04DX003 (ip), vehicle: saline with Tween-80
[11] = dose: 100.0 mg/kg/injection, schedule: Q04DX003 (ip), vehicle: Klucel (hydroxypropylcellulose) (HPC)
[12] = dose: 25.0 mg/kg/injection, schedule: Q01DX009 (ip), vehicle: Klucel (hydroxypropylcellulose) (HPC)

Structure (SMILES): C(=N/NC1=NCCN1)/c1c2ccccc2c(/C=N\NC2=NCCN2)c2ccccc12
- T/C (dose: 1.56 mg/kg/injection, schedule: Q04DX002 (ip), vehicle: saline): 209 % of control
- T/C (dose: 3.12 mg/kg/injection, schedule: Q04DX002 (ip), vehicle: saline): 229 % of control
- T/C (dose: 6.25 mg/kg/injection, schedule: Q04DX002 (ip), vehicle: saline): 239 % of control
- T/C (dose: 12.5 mg/kg/injection, schedule: Q04DX002 (ip), vehicle: saline): 209 % of control
- T/C (dose: 25.0 mg/kg/injection, schedule: Q04DX002 (ip), vehicle: saline): 229 % of control
- T/C (dose: 50.0 mg/kg/injection, schedule: Q04DX002 (ip), vehicle: saline): 280 % of control

Structure (SMILES): CCCCCC[N+](CCCCCC)(CCCCCC)CCCCCC
- T/C (dose: 3.0 mg/kg/injection, schedule: Q01DX009 (ip), vehicle: saline with Tween-80): 123 % of control
- T/C (dose: 6.0 mg/kg/injection, schedule: Q01DX009 (ip), vehicle: saline with Tween-80): 116 % of control and 119 % of control
- T/C (dose: 6.25 mg/kg/injection, schedule: Q01DX009 (ip), vehicle: saline with Tween-80): 114 % of control
- T/C (dose: 6.25 mg/kg/injection, schedule: Q04DX003 (ip), vehicle: saline with Tween-80): 108 % of control
- T/C (dose: 12.5 mg/kg/injection, schedule: Q04DX003 (ip), vehicle: saline with Tween-80): 95 % of control
- T/C (dose: 25.0 mg/kg/injection, schedule: Q04DX003 (ip), vehicle: saline with Tween-80): 113 % of control

Structure (SMILES): CC1=C(C)C2(C)C1(C)C1(C)C(C)=C(C)C21C (stereo unspecified)
- T/C [1]: 100 % of control
- T/C [2]: 90 % of control
- T/C [3]: 105 % of control

Structure (SMILES): S=C1NC2=S(N=C(Nc3ccccc3)N2c2ccccc2)S1 (stereo unspecified)
- T/C [4]: 94 % of control
- T/C [5]: 96 % of control
- T/C [6]: 93 % of control

Structure (SMILES): Nc1cc2nnc(-c3ccccc3)c(-c3ccccc3)n2n1
- T/C (dose: 100.0 mg/kg/injection, schedule: Q04DX002 (ip), vehicle: saline with Tween-80): 89 % of control
- T/C (dose: 400.0 mg/kg/injection, schedule: Q04DX002 (ip), vehicle: saline with Tween-80): 86 % of control

Structure (SMILES): C=CC(c1ccccc1)C(O)(Cc1ccccc1)Cc1ccccc1 (stereo unspecified)
- T/C (dose: 12.5 mg/kg/injection, schedule: Q01DX009 (ip), vehicle: DMSO): 116 % of control
- T/C (dose: 50.0 mg/kg/injection, schedule: Q01DX009 (ip), vehicle: DMSO): 100 % of control

Structure (SMILES): CC/C(=C(\CC)c1ccc(OCCN(CC)CC)cc1)c1ccc(OCCN(CC)CC)cc1
- T/C (dose: 12.5 mg/kg/injection, schedule: Q01DX010 (ip), vehicle: carboxymethylcellulose (CMC)): 100 % of control
- T/C (dose: 25.0 mg/kg/injection, schedule: Q01DX010 (ip), vehicle: carboxymethylcellulose (CMC)): 105 % of control

Structure (SMILES): Cc1ccc(C(=O)/C=C\c2ccccc2)cc1
- T/C [5]: 104 % of control
- T/C [7]: 103 % of control
- T/C [6]: 104 % of control
- T/C [8]: 103 % of control
- T/C [9]: 104 % of control
- T/C [10]: 103 % of control

Structure (SMILES): CC(C)OC(CCC#N)c1ccccc1 (stereo unspecified)
- T/C [2]: 100 % of control
- T/C [11]: 95 % of control
- T/C [3]: 100 % of control
- T/C (dose: 200.0 mg/kg/injection, schedule: Q04DX003 (ip), vehicle: Klucel (hydroxypropylcellulose) (HPC)): 104 % of control
- T/C (dose: 400.0 mg/kg/injection, schedule: Q04DX003 (ip), vehicle: Klucel (hydroxypropylcellulose) (HPC)): 109 % of control

Structure (SMILES): O=C1c2ccccc2S(=O)(=O)c2cc(-c3nn[nH]n3)ccc21
- T/C [1]: 106 % of control
- T/C [2]: 94 % of control
- T/C [3]: 104 % of control

Structure (SMILES): O=Nc1ccc(O)c(=O)cc1
- T/C (dose: 1.0 mg/kg/injection, schedule: Q01DX009 (ip), vehicle: saline with Tween-80): 109 % of control
- T/C (dose: 1.0 mg/kg/injection, schedule: Q04DX003 (ip), vehicle: saline): 104 % of control
- T/C (dose: 2.0 mg/kg/injection, schedule: Q01DX009 (ip), vehicle: saline with Tween-80): 109 % of control
- T/C (dose: 2.0 mg/kg/injection, schedule: Q04DX003 (ip), vehicle: saline): 104 % of control
- T/C (dose: 4.0 mg/kg/injection, schedule: Q01DX009 (ip), vehicle: saline with Tween-80): 90 % of control
- T/C (dose: 4.0 mg/kg/injection, schedule: Q04DX003 (ip), vehicle: saline): 116 % of control

Structure (SMILES): CC(C#N)N(C)C (stereo unspecified)
- T/C (dose: 10.0 mg/kg/injection, schedule: Q01DX009 (ip), vehicle: saline): 110 % of control
- T/C (dose: 10.0 mg/kg/injection, schedule: Q04DX003 (ip), vehicle: saline): 95 % of control
- T/C (dose: 20.0 mg/kg/injection, schedule: Q04DX003 (ip), vehicle: saline): 91 % of control
- T/C (dose: 40.0 mg/kg/injection, schedule: Q04DX003 (ip), vehicle: saline): 95 % of control

Structure (SMILES): COc1ccc(CCN2COc3ccc4ccc(=O)oc4c3C2)cc1OC
- T/C (dose: 132.0 mg/kg/injection, schedule: Q01DX009 (ip), vehicle: saline with Tween-80): 100 % of control
- T/C [6]: 115 % of control
- T/C (dose: 300.0 mg/kg/injection, schedule: Q01DX009 (ip), vehicle: saline with Tween-80): 115 % of control

Structure (SMILES): Cc1ccc(C)c(CCCC(=O)O)c1
- T/C [5]: 95 % of control
- T/C [7]: 100 % of control
- T/C [6]: 109 % of control
- T/C [8]: 104 % of control
- T/C [10]: 108 % of control

Structure (SMILES): O=C(O)c1ccccc1Nc1ccc(Br)cc1
- T/C (dose: 50.0 mg/kg/injection, schedule: Q01DX001 (ip), vehicle: saline with Tween-80): 100 % of control
- T/C (dose: 100.0 mg/kg/injection, schedule: Q01DX001 (ip), vehicle: saline with Tween-80): 91 % of control

Structure (SMILES): COc1cc2ccc3c4cc5c(cc4c[n+](C)c3c2cc1OC)OCO5
- T/C (dose: 20.0 mg/kg/injection, schedule: Q01DX009 (ip), vehicle: saline): 122 % of control
- T/C (dose: 40.0 mg/kg/injection, schedule: Q01DX009 (ip), vehicle: saline): 154 % of control and 159 % of control
- T/C (dose: 80.0 mg/kg/injection, schedule: Q01DX009 (ip), vehicle: saline): 113 % of control
- T/C (dose: 120.0 mg/kg/injection, schedule: Q01DX009 (ip), vehicle: saline): 86 % of control

Structure (SMILES): O=S(=O)(O)c1ccc(-c2ccccc2)cc1
- T/C [12]: 95 % of control
- T/C [1]: 87 % of control
- T/C [2]: 95 % of control
- T/C [11]: 88 % of control

Structure (SMILES): CC1(C)CC(=O)C(C(=O)Nc2ccc(Cl)cc2)C(=O)C1
- T/C [4]: 98 % of control
- T/C [5]: 93 % of control
- T/C [6]: 89 % of control

Structure (SMILES): Nc1nc2nc(-c3ccccc3)nc(N)c2nc1Sc1ccc(Cl)cc1
- T/C [7]: 94 % of control
- T/C [8]: 103 % of control
- T/C [10]: 103 % of control

Structure (SMILES): C=C(C)C(N)C(=O)O (stereo unspecified)
- T/C [7]: 118 % of control
- T/C [8]: 104 % of control
- T/C [10]: 118 % of control

Structure (SMILES): Cc1csc(/N=C/c2ccc([N+](=O)[O-])o2)n1
- T/C (dose: 50.0 mg/kg/injection, schedule: Q04DX003 (ip), vehicle: saline with Tween-80): 109 % of control
- T/C [7]: 118 % of control
- T/C [8]: 113 % of control

Structure (SMILES): COc1cc([N+](=O)[O-])c(C)cc1Nc1ccc(OC)c(OC)c1
- T/C [4]: 100 % of control
- T/C [5]: 103 % of control and 106 % of control
- T/C [7]: 100 % of control
- T/C [6]: 87 % of control and 94 % of control
- T/C [8]: 100 % of control
- T/C [9]: 97 % of control and 100 % of control
- T/C [10]: 90 % of control

Structure (SMILES): N#Cc1cn(C2OC(CO)C(O)C2O)c2nc(Cl)nc(N)c12 (stereo unspecified)
- T/C (dose: 6.25 mg/kg/injection, schedule: Q04DX003 (ip), vehicle: saline): 112 % of control
- T/C (dose: 12.5 mg/kg/injection, schedule: Q04DX003 (ip), vehicle: saline): 166 % of control
- T/C (dose: 25.0 mg/kg/injection, schedule: Q04DX003 (ip), vehicle: saline): 166 % of control

Structure (SMILES): O=C1N=C(C(F)(F)F)N=C1c1[nH]c(C(F)(F)F)nc1O
- T/C [4]: 111 % of control
- T/C [5]: 102 % of control
- T/C [7]: 100 % of control
- T/C [6]: 102 % of control
- T/C [8]: 102 % of control
- T/C [9]: 116 % of control
- T/C [10]: 98 % of control

Structure (SMILES): C=CCN1C=CC=C/C1=C\C=C(/C#N)C(=O)OCC
- T/C [4]: 99 % of control
- T/C [5]: 90 % of control
- T/C [6]: 103 % of control

Structure (SMILES): CCS(=O)(=O)OCCCl
- T/C [12]: 100 % of control
- T/C (dose: 44.0 mg/kg/injection, schedule: Q01DX009 (ip), vehicle: saline): 104 % of control
- T/C [1]: 100 % of control
- T/C [4]: 103 % of control
- T/C (dose: 50.0 mg/kg/injection, schedule: Q01DX009 (ip), vehicle: saline): 161 % of control
- T/C (dose: 66.0 mg/kg/injection, schedule: Q01DX009 (ip), vehicle: saline): 108 % of control
- T/C [2]: 105 % of control
- T/C [5]: 104 % of control
- T/C (dose: 100.0 mg/kg/injection, schedule: Q01DX009 (ip), vehicle: saline): 230 % of control and 95 % of control and 108 % of control
- T/C (dose: 100.0 mg/kg/injection, schedule: Q04DX003 (ip), vehicle: saline): 100 % of control
- T/C (dose: 150.0 mg/kg/injection, schedule: Q01DX009 (ip), vehicle: saline): 120 % of control
- T/C [6]: 116 % of control
- T/C (dose: 200.0 mg/kg/injection, schedule: Q04DX003 (ip), vehicle: saline): 91 % of control
